Measured values taken from patent publication US20260315552A1, “COMBINATION OF VITAMINS, 2'-FUCOSYLLACTOSE AND A PROBIOTIC FOR ENHANCING BONE GROWTH AND/OR BONE STRENGTH” (SOCIÉTÉ DES PRODUITS NESTLÉ S.A., priority 2023, published 2026).

How the values were obtained:
[1] = tested on: osteocalcin (Ocn) in pre-osteoblastic cell line MC3T3-E1 subclone 4; assay: Osteocalcin mRNA levels (qPCR); type: cell-based; settings: 21 days of differentiation, without ascorbic acid; MK-7 3 μM, VitA 100 nM, VitD 1 nM; FIG. 1B
Description: (§1) (A) ALP activity after 7 days of differentiation (without ascorbic acid). (B) Osteocalcin mRNA levels after 21 days of differentiation (without ascorbic acid). (C) Osteocalcin mRNA levels after 28 days of differentiation (with ascorbic acid). Pos=positive control; Neg=negative control; MK-7=supplemented with 3 μM menaquinone-7; VitD=supplemented with 1 nM 1α,25-Dihydroxyvitamin D3; VitA=supplemented with 100 nM all-trans-retinoic acid.
The pre-osteoblastic cell line MC3T3-E1 subclone 4 (CRL-2593) was purchased from ATCC (Manassas; Virginia, USA). Cells were maintained in growth medium (GM) composed of ascorbic acid-free αMEM (ThermoFisher Scientific), supplemented with 10% fetal calf serum (FCS, ThermoFisher Scientific) and 1% penicillin/streptomycin. All culture media were refreshed every 2-3 days. Cells were passaged with trypsin/EDTA solution at less than 80% confluence. To induce differentiation into osteoblasts, cells were seeded at 5×10^4 cells/cm^2 and grown to confluency in GM for 24 h. Then, the medium was switched to differentiation medium (DM) composed of GM supplemented with 10 mM β-glycerophosphate and treatment solutions of interest. Ascorbic acid 50 μg/ml was also added to the DM depending on the experiment.
MC3T3-E1 subclone 4 cells were differentiated for 21 days (in DM without ascorbic acid except for the positive control) or 28 days (in DM containing ascorbic acid). Cells were then collected for gene expression analysis. RNA was extracted using the RNeasy plus mini kit (Qiagen; Hilden, Germany) with the QIAcube (Qiagen,) according to the manufacturer's instructions. Briefly, cells were lysed in RLT buffer and spun in a QIAshredder column (Qiagen) before being processed by the QIAcube. RNA concentrations were measured using the DropSense96 (TRINEAN, Gentbrugge, Belgium).
cDNAs were synthetized using High-Capacity cDNA Reverse Transcription Kit (AppliedBiosystems; Waltham, Massachusetts, USA) according to the manufacturer's instructions. […] The relative gene expression was evaluated via the 2^-ΔCt method.

[2] = tested on: pre-osteoblastic cell line MC3T3-E1 subclone 4; assay: Osteoblast alkaline phosphatase (ALP) activity; type: cell-based; settings: 7 days of differentiation, without ascorbic acid; MK-7 3 μM, VitA 100 nM all-trans-retinoic acid, VitD 1 nM 1α,25-Dihydroxyvitamin D3; FIG. 1A
Description: as §1
ALP activity after 7 days of differentiation (without ascorbic acid). […]
The effect of SCFAs was further investigated. Three mixes of 75% acetate, 20% propionate, 5% butyrate were evaluated to mimic normal physiological conditions (20 μM SCFAs), physiological conditions following prebiotic supplementation (50 μM SCFAs), and physiological conditions following synbiotic supplementation (60 μM SCFAs). […]
After 7 days of differentiation, cells were then collected for alkaline phosphatase (ALP) activity measurement as described previously with minor modifications. […] Enzymatic reaction was monitored at 405 nm after 4-Nitrophenyl phosphate disodium salt hexahydrate addition. Michaelis-Menten kinetics were evaluated at 30° C. for 30 min. […] The activity value was normalized by protein content measured via the Pierce BCA Protein Assay Kit (ThermoFisher Scientific) according to the manufacturer's instructions.

Row | SMILES | effect on osteocalcin expression [1] | effect on ALP activity (marker of osteoblast differentiation) [2]
1 | CC1=C(/C=C/C(C)=C/C=C/C(C)=C/C(=O)O)C(C)(C)CCC1 [vitamin A, all-trans-retinoic acid] | no significant effect | –
2 | C=C1/C(=C\C=C2/CCC[C@]3(C)[C@@H]([C@H](C)CCCC(C)(C)O)CC[C@@H]23)C[C@@H](O)C[C@@H]1O [vitamin D, 1α,25-Dihydroxyvitamin D3] | no significant effect | –
3 | CC(C)=CCC/C(C)=C/CC/C(C)=C/CC/C(C)=C/CC/C(C)=C/CC/C(C)=C/CC/C(C)=C/CC1=C(C)C(=O)c2ccccc2C1=O [vitamin K2, menaquinone-7] | significant effect | no significant effect
